Bounds are passed on as bounds.

For the test, the target named is T1, HMG-CoA reductase (Homo sapiens, UniProt P04035).
T1 construct: endogenous in cells; host or cells: HepG2 (Korea Cell Line Bank)
T1 sequence (P04035 1-888): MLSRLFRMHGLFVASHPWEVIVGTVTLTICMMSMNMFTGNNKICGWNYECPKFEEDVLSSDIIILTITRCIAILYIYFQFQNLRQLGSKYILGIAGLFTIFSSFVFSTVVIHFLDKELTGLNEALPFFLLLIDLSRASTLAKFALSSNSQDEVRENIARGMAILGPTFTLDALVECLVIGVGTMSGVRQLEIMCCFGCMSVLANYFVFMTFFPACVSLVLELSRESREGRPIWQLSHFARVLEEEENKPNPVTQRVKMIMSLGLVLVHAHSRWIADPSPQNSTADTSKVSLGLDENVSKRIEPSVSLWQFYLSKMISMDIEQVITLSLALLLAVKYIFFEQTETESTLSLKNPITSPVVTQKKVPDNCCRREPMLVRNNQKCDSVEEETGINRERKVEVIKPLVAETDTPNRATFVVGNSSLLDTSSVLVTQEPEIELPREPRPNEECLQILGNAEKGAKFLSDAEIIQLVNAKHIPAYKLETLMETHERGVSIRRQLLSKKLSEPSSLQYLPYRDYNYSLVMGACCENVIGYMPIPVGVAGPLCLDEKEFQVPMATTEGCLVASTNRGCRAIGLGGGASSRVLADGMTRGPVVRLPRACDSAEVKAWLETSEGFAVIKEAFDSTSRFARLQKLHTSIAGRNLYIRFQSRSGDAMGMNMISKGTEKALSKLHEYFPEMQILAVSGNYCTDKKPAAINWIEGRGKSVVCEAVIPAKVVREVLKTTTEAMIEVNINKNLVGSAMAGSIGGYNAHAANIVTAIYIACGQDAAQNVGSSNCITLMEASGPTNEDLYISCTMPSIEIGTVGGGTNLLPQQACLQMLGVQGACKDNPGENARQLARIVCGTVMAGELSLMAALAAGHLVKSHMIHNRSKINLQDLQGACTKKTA
Briefly: HMG-CoA reductase (HMGCR) degradation in HepG2 cells by western blotting. The format is cell-based. The note with it: treated for 18 hours, ratio of HMG-CoA reductase to GAPDH, read-out: DC50. The procedure: HepG2, a human liver cancer cell line, was purchased from the Korea Cell Line Bank (KCLB), Seoul, Korea. The passage in cell culture was maintained at P105 to P110.
The compounds of the present invention were completely dissolved in DMSO and used in the experiment. 2×10^5 cells were seeded for each well of a 12-well plate (SPL), and the cells were cultured in the culture medium in a total volume of 2 ml. Each of the compounds of the present invention and comparative compounds was diluted three folds from the highest concentration of 3 μM to the lowest concentration in 10 points and treated for 18 hours.
Each of the compounds the present invention and comparative compounds was diluted three folds from the highest concentration of 3 μM to the lowest concentration of […] in 10 points and was treated for 18 hours.
For SDS-PAGE and Western blotting, 1×RIPA lysis buffer (Rockland, Cat. No. MB-030-0050; Lot no. 39751), 100× Protease Inhibitor Cocktail (Quartett, Cat. No. PPI1015; Lot no. PCO50038424), Pierce™ BCA protein assay kit (ThermoScientific, Cat. No. 23225; Lot no. UC276876), albumin standard (ThermoScientific, Cat. No. 23209; Lot no. UB269561), 4-15% Mini-PROTEAN TGX stain-free gel (Bio-rad, Cat. No. 4568085; Lot no. L007041B), 10× Tris/Glycine/SDS buffer (Bio-rad, Cat. No. 1610732; Lot no. 10000044375B); 10×TBS (Bio-rad, Cat. No. 1706435; Lot no. 1000045140B), 10% Tween 20 (Cat. No. 1610781; Lot no. L004152B), Color protein standard broad range (NEB, Cat. No. P7719S; Lot no. 10040349), 4× Laemmli sample buffer (Bio-rad, Cat. No. 1610747; Lot no. L004133B), β-mercaptoethanol (Sigma-Aldrich, Cat. No. M3148; Lot no. 60-24-2), SuperBlock™ T20 (TBS) blocking buffer (ThermoScientific, Cat. No. 37536; Lot no. UC282578), 1M sodium azide solution (Sigma-Aldrich, Cat. No. 08591-1 mL-F; Lot no. BCBV4989), α-Rabbit pAb to Ms IgG (abcam, Cat. No. ab97046; Lot no. GR3252115-1), α-Goat pAb to Rb IgG (CST, Cat. No. 7074S; Lot no. 28), α-GAPDH (abcam, Cat. No. ab8245), α-HMGCR (GeneTex, Cat. No. GTX54088; Lot no. 821903509), ECL™ Prime western blotting reagents (GE Healthcare, Cat. No. RPN2232; Lot no. 17001655), Ponceau S solution (Sigma-Aldrich, Cat. No. P7170; Lot no. SLBV4112), Difco™ Skim milk (BD, Cat. No. 232100; Lot no. 8346795), and iBlot® 2 NC Regular stacks (Invitrogen, Cat. No. IB23001; Lot no. 2NR110619-02), were used.
For cell harvesting, the cells were first separated from the plate using trypsin and then washed with the medium and PBS. Specifically, the medium was suctioned off and washed with 1 mL of PBS, and PBS was suctioned off. The cells were treated with 0.5 mL TrypLE™ Express at 37° C. for 7 minutes to separate the cells, and then 0.5 mL of complete medium was added to collect 1 mL of cell culture solution. Then, 1 mL of the cell collection solution was centrifuged at 8,000 rpm for 120 seconds, and the supernatant was removed. After washing with 0.2 mL of PBS, the PBS was removed.
For cell lysis, a lysis buffer was added and cell debris was removed to obtain a cell lysate. Specifically, the cells were treated with 70 μL of 1×RIPA buffer containing a protease inhibitor and incubated for 30 minutes on ice. Then, the cells were centrifuged at 4° C. and 15,000 rpm for 10 minutes to obtain a cell lysate.
Then, a standard curve was obtained using the BCA assay, and the protein mass in the lysate was quantified by substituting the curve. The mixture was incubated at 37° C. for 30 minutes using 20 μL of standard or sample solution, and 200 μL of BCA or Bradford solution, and measured at 562 nm absorbance. Samples were prepared by adding 4× sample buffer so that the quantity of protein added to each well was 15 μg.
Sodium dodecyl sulfate polyacrylamide gel electrophoresis (SDS-PAGE) was performed by setting a running time of 100 minutes at 120 V on a 4-15% Mini-PROTEAN TGX stain-free gel (15 well). Transferring was performed on iBlot® 2 NC Mini stacks at P0 mode of the dry blotting system. […]
(In general: A western blot detects proteins with antibodies after separation by electrophoresis.)
As to `C[C@H]1C=C2C=C[C@H](C)[C@H](CC[C@@H]3C[C@@H](O[Si](C)(C)C(C)(C)C)CC(=O)O3)[C@H]2[C@@H](OC(=O)NCCOCCOCCNc2cccc3nnn(C4CCC(=O)NC4=O)c(=O)c23)C1` (stereo partly drawn) [Compound 155, (1S,3R,7S,8S,8aR)-8-(2-((2R,4R)-4-((tert-butyldimethylsilyl)oxy)-6-oxotetrahydro-2H-pyran-2-yl)ethyl)-3,7-dimethyl-1,2,3,7,8,8a-hexahydronaphthalen-1-yl (2-(2-(2-((3-(2,6-dioxopiperidin-3-yl)-4-oxo-3,4-dihydrobenzo[d][1,2,3]triazin-5-yl)amino)ethoxy)ethoxy)ethyl)carbamate], the DC50 is under 50 nM.

With `C[C@H]1C=C2C=C[C@H](C)[C@H](CC[C@@H]3C[C@@H](O[Si](C)(C)C(C)(C)C)CC(=O)O3)[C@H]2[C@@H](OC(=O)NCc2ccc(OCCNc3cccc4c3C(=O)N(C3CCC(=O)NC3=O)C4=O)cc2)C1` (stereo partly drawn) [Compound 104, (1S,3R,7S,8S,8aR)-8-(2-((2R,4R)-4-((tert-butyldimethylsilyl)oxy)-6-oxotetrahydro-2H-pyran-2-yl)ethyl)-3,7-dimethyl-1,2,3,7,8,8a-hexahydronaphthalen-1-yl (4-(2-((2-(2,6-dioxopiperidin-3-yl)-1,3-dioxoisoindolin-4-yl)amino)ethoxy)benzyl)carbamate], the DC50 is under 50 nM.

With `CN[C@@H](C)C(=O)N[C@H](C(=O)N1CCC[C@H]1c1nc(C(=O)c2cccc(OCCOCCOCCOCCOCCNC(=O)O[C@H]3C[C@@H](C)C=C4C=C[C@H](C)[C@H](CC[C@@H]5C[C@@H](O)CC(=O)O5)[C@H]43)c2)cs1)C1CCCCC1` [Compound 33, (1S,3R,7S,8S,8aR)-8-(2-((2R,4R)-4-hydroxy-6-oxotetrahydro-2H-pyran-2-yl)ethyl)-3,7-dimethyl-1,2,3,7,8,8a-hexahydronaphthalen-1-yl (14-(3-(2-((S)-1-((S)-2-cyclohexyl-2-((S)-2-(methylamino)propanamido)acetyl)pyrrolidin-2-yl)thiazole-4-carbonyl)phenoxy)-3,6,9,12-tetraoxatetradecyl)carbamate], the DC50 is under 50 nM.

`Cc1ncsc1-c1ccc(CNC(=O)[C@@H]2C[C@@H](O)CN2C(=O)[C@@H](NC(=O)C2(F)CC2)C(C)(C)C)c(OCCCCCCCCCCNC(=O)O[C@H]2C[C@@H](C)C=C3C=C[C@H](C)[C@H](CC[C@@H]4C[C@@H](O)CC(=O)O4)[C@H]32)c1` [Compound 167, (1S,3R,7S,8S,8aR)-8-(2-((2R,4R)-4-hydroxy-6-oxotetrahydro-2H-pyran-2-yl)ethyl)-3,7-dimethyl-1,2,3,7,8,8a-hexahydronaphthalen-1-yl (10-(2-(((2S,4R)-1-((S)-2-(1-fluorocyclopropane-1-carboxamido)-3,3-dimethylbutanoyl)-4-hydroxypyrrolidine-2-carboxamido)methyl)-5-(4-methylthiazol-5-yl)phenoxy)decyl)carbamate]: the DC50 is under 50 nM.

`C[C@H]1C=C2C=C[C@H](C)[C@H](CC[C@@H](O)C[C@@H](O)CC(=O)O)[C@H]2[C@@H](OC(=O)NCCOCCOCCNc2cccc3c2C(=O)N(C2CCC(=O)NC2=O)C3=O)C1` (stereo partly drawn) [Compound 106, (3R,5R)-7-((1S,2S,6R,8S,8aR)-8-(((2-(2-(2-((2-(2,6-dioxopiperidin-3-yl)-1,3-dioxoisoindolin-4-yl)amino)ethoxy)ethoxy)ethyl)carbamoyl)oxy)-2,6-dimethyl-1,2,6,7,8,8a-hexahydronaphthalen-1-yl)-3,5-dihydroxyheptanoic acid]: the DC50 was under 50 nM.

As for `C[C@H]1C=C2C=C[C@H](C)[C@H](CC[C@@H]3C[C@@H](O[Si](C)(C)C(C)(C)C)CC(=O)O3)[C@H]2[C@@H](OC(=O)NCCC(=O)NCCOCCNc2cccc3c2C(=O)N(C2CCC(=O)NC2=O)C3=O)C1` (stereo partly drawn) [Compound 100, (1S,3R,7S,8S,8aR)-8-(2-((2R,4R)-4-((tert-butyldimethylsilyl)oxy)-6-oxotetrahydro-2H-pyran-2-yl)ethyl)-3,7-dimethyl-1,2,3,7,8,8a-hexahydronaphthalen-1-yl (3-((2-(2-((2-(2,6-dioxopiperidin-3-yl)-1,3-dioxoisoindolin-4-yl)amino)ethoxy)ethyl)amino)-3-oxopropyl)carbamate], the DC50 was under 50 nM.

Regarding `C[C@H]1C=C2C=C[C@H](C)[C@H](CC[C@@H]3C[C@@H](O)CC(=O)O3)[C@H]2[C@@H](OC(=O)NCCCCCCNc2cccc3c2C(=O)N(C2CCC(=O)NC2=O)C3=O)C1` (stereo partly drawn) [Compound 59, (1S,3R,7S,8S,8aR)-8-(2-((2R,4R)-4-hydroxy-6-oxotetrahydro-2H-pyran-2-yl)ethyl)-3,7-dimethyl-1,2,3,7,8,8a-hexahydronaphthalen-1-yl (6-((2-(2,6-dioxopiperidin-3-yl)-1,3-dioxoisoindolin-4-yl)amino)hexyl)carbamate], the DC50 was 50 to 500 nM.

A word on the DC50: it is the midpoint of the concentration-degradation curve.

Source of the values: US12479840B2, “HMG-CoA reductase degradation inducing compound” (Uppthera, priority 2020, dated 2025).
